Values joined by “and” are separate entries in the source; they are usually repeats but may differ in a detail not shown here. Identical values can stand only once. Blank lines part the entries; values can stand above or below the compound they belong to.
Key:
Test in all cases: Caliper, Mobility shift assay off-chip
[1] = biological target: ALK (human) (UniProt Q9UM73)
[2] = biological target: CDK1 (human) (UniProt P06493)
[3] = biological target: CDK5 (human) (UniProt Q00535)
[4] = biological target: CDK7 (human) (UniProt P50613)
[5] = biological target: CLK1 (human) (UniProt P49759)
[6] = biological target: CSK (human) (UniProt P41240)
[7] = biological target: CSNK1A1 (human) (UniProt P48729)
Chain of CSNK1A1 (human) (P48729 whole entry, looked up): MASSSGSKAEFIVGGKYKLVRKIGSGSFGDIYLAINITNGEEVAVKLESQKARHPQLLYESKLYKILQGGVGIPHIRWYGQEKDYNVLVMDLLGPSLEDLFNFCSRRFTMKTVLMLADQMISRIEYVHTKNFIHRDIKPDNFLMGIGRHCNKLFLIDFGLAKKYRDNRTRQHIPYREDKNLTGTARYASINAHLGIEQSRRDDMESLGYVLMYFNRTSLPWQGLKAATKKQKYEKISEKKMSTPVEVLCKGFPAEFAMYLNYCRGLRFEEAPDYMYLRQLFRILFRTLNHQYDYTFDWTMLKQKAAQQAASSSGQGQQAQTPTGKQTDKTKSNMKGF

[8] = biological target: DYRK2 (human) (UniProt Q92630)
[9] = biological target: DYRK3 (human) (UniProt O43781)
[10] = biological target: EPHA4 (human) (UniProt P54764)
Chain of EPHA4 (human) (P54764 whole entry, looked up): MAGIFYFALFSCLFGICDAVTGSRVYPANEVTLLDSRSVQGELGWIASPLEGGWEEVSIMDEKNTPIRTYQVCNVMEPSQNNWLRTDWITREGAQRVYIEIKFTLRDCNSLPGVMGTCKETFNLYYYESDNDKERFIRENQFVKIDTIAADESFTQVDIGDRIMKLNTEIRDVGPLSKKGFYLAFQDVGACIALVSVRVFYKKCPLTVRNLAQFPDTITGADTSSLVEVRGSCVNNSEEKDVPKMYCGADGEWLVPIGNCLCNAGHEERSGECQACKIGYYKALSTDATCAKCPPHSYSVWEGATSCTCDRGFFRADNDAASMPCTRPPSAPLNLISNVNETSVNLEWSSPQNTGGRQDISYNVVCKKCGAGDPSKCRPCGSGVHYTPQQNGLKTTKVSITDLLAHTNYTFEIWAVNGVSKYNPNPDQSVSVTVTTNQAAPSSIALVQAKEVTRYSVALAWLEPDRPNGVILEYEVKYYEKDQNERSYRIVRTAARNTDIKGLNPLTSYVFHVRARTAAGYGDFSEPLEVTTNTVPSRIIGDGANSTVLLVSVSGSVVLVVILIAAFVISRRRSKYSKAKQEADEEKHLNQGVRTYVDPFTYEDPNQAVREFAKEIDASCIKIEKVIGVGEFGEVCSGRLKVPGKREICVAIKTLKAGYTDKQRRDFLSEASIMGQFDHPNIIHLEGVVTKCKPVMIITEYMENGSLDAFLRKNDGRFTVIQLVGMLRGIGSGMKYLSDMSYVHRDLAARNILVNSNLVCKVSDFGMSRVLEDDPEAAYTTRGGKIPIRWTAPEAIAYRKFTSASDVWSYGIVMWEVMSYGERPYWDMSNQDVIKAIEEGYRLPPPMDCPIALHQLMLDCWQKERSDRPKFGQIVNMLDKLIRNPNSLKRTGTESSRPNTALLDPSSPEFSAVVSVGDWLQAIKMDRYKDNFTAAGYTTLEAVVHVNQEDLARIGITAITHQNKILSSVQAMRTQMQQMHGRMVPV

[11] = biological target: EPHA5 (human) (UniProt P54756)
[12] = biological target: FGFR1 (human) (UniProt P11362)
Chain of FGFR1 (human) (P11362 whole entry, looked up): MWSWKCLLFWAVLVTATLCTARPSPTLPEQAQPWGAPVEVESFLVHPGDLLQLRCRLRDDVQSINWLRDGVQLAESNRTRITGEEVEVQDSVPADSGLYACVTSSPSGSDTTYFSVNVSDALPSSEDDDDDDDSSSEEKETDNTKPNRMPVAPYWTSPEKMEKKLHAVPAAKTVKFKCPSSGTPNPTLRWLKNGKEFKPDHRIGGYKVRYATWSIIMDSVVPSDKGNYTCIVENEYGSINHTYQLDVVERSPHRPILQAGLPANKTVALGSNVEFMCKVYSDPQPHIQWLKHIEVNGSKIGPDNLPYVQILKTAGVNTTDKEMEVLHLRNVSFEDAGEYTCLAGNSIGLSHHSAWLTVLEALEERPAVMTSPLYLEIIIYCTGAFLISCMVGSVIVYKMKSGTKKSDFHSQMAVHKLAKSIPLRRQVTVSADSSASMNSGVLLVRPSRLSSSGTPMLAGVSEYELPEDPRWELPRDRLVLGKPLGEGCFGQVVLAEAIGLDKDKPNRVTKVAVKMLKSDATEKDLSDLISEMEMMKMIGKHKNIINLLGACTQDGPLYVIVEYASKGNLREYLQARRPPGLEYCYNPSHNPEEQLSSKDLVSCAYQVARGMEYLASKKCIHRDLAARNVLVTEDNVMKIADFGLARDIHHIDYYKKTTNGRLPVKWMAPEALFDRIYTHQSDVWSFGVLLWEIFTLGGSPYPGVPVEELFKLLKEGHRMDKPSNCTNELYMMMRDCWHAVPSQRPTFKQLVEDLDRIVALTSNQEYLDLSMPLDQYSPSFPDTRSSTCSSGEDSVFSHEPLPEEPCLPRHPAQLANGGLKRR

[13] = biological target: INSRR (human) (UniProt P14616)
[14] = biological target: MAP4K2 (human) (UniProt Q12851)
[15] = biological target: MAP4K4 (human) (UniProt O95819)
Chain of MAP4K4 (human) (O95819 whole entry, looked up): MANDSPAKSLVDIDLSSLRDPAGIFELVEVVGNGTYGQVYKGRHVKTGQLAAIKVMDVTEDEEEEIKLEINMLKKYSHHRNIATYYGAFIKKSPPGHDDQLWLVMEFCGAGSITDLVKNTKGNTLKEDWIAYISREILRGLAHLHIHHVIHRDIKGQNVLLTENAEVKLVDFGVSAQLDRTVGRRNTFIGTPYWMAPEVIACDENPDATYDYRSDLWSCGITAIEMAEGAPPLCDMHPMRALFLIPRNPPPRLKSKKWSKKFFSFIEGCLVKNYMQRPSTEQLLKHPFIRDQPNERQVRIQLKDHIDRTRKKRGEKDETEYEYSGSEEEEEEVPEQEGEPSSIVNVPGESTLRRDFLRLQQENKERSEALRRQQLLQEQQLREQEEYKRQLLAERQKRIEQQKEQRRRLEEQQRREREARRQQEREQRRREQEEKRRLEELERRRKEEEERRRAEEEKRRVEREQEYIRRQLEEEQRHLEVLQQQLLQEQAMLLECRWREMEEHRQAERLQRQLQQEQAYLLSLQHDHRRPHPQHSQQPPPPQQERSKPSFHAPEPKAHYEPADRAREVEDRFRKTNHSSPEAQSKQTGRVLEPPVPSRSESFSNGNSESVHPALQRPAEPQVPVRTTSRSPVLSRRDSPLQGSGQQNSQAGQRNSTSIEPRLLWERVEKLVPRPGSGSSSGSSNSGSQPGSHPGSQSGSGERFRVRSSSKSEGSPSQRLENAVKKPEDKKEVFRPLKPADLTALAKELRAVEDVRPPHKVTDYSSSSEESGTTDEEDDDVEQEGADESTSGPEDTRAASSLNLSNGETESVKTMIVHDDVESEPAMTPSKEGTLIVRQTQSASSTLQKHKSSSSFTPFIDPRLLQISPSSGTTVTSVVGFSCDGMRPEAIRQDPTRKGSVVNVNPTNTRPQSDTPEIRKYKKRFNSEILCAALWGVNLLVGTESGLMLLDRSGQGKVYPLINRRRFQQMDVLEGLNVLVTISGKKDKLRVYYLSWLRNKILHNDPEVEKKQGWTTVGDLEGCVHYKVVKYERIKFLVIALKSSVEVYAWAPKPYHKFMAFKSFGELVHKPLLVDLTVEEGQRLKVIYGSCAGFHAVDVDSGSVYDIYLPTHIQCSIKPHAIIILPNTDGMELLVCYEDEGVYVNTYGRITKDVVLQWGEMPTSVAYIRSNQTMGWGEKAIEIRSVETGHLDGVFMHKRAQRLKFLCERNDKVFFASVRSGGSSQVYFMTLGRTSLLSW

[16] = biological target: MAPK14 (human) (UniProt Q16539)
[17] = biological target: MARK2 (human) (UniProt Q7KZI7)
Chain of MARK2 (human) (Q7KZI7 whole entry, looked up): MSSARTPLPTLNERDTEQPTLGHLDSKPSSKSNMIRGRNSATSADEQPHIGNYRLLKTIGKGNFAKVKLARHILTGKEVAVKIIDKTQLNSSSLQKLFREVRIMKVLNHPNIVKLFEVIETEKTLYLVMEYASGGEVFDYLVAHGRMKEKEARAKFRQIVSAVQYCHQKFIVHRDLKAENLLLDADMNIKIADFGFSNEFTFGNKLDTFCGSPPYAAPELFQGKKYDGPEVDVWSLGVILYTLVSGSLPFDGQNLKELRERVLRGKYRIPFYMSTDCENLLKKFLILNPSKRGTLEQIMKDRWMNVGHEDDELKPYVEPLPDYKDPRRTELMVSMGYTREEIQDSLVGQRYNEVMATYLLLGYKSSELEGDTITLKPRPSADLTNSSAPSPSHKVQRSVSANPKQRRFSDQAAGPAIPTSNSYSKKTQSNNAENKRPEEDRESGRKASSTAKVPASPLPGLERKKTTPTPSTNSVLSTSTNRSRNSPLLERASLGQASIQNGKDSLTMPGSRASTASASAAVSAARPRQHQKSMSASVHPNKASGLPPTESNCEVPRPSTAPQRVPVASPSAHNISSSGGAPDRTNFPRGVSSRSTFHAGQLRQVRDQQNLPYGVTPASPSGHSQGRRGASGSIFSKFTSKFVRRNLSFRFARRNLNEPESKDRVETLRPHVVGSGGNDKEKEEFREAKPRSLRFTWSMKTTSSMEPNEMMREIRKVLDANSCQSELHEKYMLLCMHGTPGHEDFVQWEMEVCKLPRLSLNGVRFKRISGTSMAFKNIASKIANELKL

[18] = biological target: MELK (human) (UniProt Q14680)
[19] = biological target: MINK1 (human) (UniProt Q8N4C8)
[20] = biological target: MST4 (human) (UniProt Q9P289)
[21] = biological target: PIM1 (human) (UniProt P11309)
Chain of PIM1 (human) (P11309 whole entry, looked up): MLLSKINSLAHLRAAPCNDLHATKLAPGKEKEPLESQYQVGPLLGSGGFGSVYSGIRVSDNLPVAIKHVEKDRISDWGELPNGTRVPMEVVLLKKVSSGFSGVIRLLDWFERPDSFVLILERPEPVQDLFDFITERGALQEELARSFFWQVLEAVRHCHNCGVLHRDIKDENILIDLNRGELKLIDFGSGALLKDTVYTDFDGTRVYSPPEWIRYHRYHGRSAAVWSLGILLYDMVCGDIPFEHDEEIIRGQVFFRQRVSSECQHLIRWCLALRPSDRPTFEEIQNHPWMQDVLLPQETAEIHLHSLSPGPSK

[22] = biological target: PLK1 (human) (UniProt P53350)
[23] = biological target: PRKAA2 (human) (UniProt P54646)
[24] = biological target: PRKACG (human) (UniProt P22612)
[25] = biological target: PRKCB1 (human) (UniProt P05771)
[26] = biological target: ROS1 (human) (UniProt P08922)
[27] = biological target: RPS6KB2 (human) (UniProt Q9UBS0)
[28] = biological target: SLK (human) (UniProt Q9H2G2)
[29] = biological target: SRMS (human) (UniProt Q9H3Y6)
[30] = biological target: SRPK3 (human) (UniProt Q9UPE1)
Chain of SRPK3 (human) (Q9UPE1 whole entry, looked up): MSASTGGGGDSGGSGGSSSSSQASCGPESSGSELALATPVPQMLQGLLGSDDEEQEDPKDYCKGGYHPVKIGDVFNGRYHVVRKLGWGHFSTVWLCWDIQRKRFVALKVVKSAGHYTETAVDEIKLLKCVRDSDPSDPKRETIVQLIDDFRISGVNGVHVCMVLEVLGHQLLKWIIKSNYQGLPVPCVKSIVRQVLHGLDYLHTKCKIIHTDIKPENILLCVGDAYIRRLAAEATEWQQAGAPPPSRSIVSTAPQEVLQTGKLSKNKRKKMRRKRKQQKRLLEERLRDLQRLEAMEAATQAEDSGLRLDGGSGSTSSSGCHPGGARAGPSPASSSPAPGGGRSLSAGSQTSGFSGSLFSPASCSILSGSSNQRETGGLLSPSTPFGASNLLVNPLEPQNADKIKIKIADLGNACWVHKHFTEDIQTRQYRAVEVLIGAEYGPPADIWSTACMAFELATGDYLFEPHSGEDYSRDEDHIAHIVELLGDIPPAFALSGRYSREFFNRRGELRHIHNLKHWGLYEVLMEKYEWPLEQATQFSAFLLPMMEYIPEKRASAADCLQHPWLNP

[31] = biological target: TAB1 (human) (UniProt Q15750)
[32] = biological target: TNK2 (human) (UniProt Q07912)
[33] = biological target: TXK (human) (UniProt P42681)
[34] = biological target: TYRO3 (human) (UniProt Q06418)
[35] = biological target: NTRK3 (human) (UniProt Q16288)

inhibition ([1]; compound 0.02 µM): -3.3%
inhibition ([1]; compound 0.2 µM): 5.8%
inhibition ([2]; compound 0.02 µM): -2%
inhibition ([2]; compound 0.2 µM): -2%
inhibition ([3]; compound 0.02 µM): -3.5%
inhibition ([3]; compound 0.2 µM): -3.6%
inhibition ([4]; compound 0.02 µM): -5.5%
inhibition ([4]; compound 0.2 µM): -7%
inhibition ([5]; compound 0.02 µM): -7%
inhibition ([5]; compound 0.2 µM): 8.1%
inhibition ([6]; compound 0.02 µM): -9.3%
inhibition ([6]; compound 0.2 µM): 2.6%
inhibition ([7]; compound 0.02 µM): -4.6%
inhibition ([7]; compound 0.2 µM): -2.9%
inhibition ([8]; compound 0.02 µM): -7.8%
inhibition ([8]; compound 0.2 µM): 6.1%
inhibition ([9]; compound 0.02 µM): -5.8%
inhibition ([9]; compound 0.2 µM): 2.1%
inhibition ([10]; compound 0.02 µM): -1.7%
inhibition ([10]; compound 0.2 µM): 22%
inhibition ([11]; compound 0.02 µM): 6.1%
inhibition ([11]; compound 0.2 µM): 38.8%
inhibition ([12]; compound 0.02 µM): 5.3%
inhibition ([12]; compound 0.2 µM): 49.9%
inhibition ([13]; compound 0.02 µM): -6.9%
inhibition ([13]; compound 0.2 µM): -3%
inhibition ([14]; compound 0.02 µM): 3.2%
inhibition ([14]; compound 0.2 µM): 11.5%
inhibition ([15]; compound 0.02 µM): -4.1%
inhibition ([15]; compound 0.2 µM): 6%
inhibition ([16]; compound 0.2 µM): 63.8%
inhibition ([17]; compound 0.02 µM): -10.6%
inhibition ([17]; compound 0.2 µM): -9.7%
inhibition ([18]; compound 0.02 µM): -4.3%
inhibition ([18]; compound 0.2 µM): -1.1%
inhibition ([19]; compound 0.02 µM): -3.3%
inhibition ([19]; compound 0.2 µM): 4.1%
inhibition ([20]; compound 0.02 µM): -5.7%
inhibition ([20]; compound 0.2 µM): 0.1%
inhibition ([21]; compound 0.02 µM): 1%
inhibition ([21]; compound 0.2 µM): -3.6%
inhibition ([22]; compound 0.02 µM): -3.1%
inhibition ([22]; compound 0.2 µM): -3.7%
inhibition ([23]; compound 0.02 µM): -5.3%
inhibition ([23]; compound 0.2 µM): 10.4%
inhibition ([24]; compound 0.02 µM): -6.6%
inhibition ([24]; compound 0.2 µM): -6%
inhibition ([25]; compound 0.02 µM): -0.2% and -0.6%
inhibition ([25]; compound 0.2 µM): 22% and 17.2%
inhibition ([26]; compound 0.2 µM): 1.3%
inhibition ([27]; compound 0.02 µM): 6.3%
inhibition ([27]; compound 0.2 µM): 5.5%
inhibition ([28]; compound 0.02 µM): 1%
inhibition ([28]; compound 0.2 µM): 10.6%
inhibition ([29]; compound 0.02 µM): -0.4%
inhibition ([29]; compound 0.2 µM): 4.1%
inhibition ([30]; compound 0.02 µM): -0.5%
inhibition ([30]; compound 0.2 µM): 7.9%
inhibition ([31]; compound 0.02 µM): 4.8%
inhibition ([31]; compound 0.2 µM): 14.3%
inhibition ([32]; compound 0.02 µM): -5%
inhibition ([32]; compound 0.2 µM): -3.2%
inhibition ([33]; compound 0.02 µM): -6.1%
inhibition ([33]; compound 0.2 µM): 5.8%
inhibition ([34]; compound 0.02 µM): -9.4%
inhibition ([34]; compound 0.2 µM): 3.7%
Compound: CNC(=O)c1cc(Oc2ccc(NC(=O)Nc3ccc(Cl)c(C(F)(F)F)c3)cc2)ccn1

inhibition ([1]; compound 0.2 µM): 82.2%
inhibition ([1]; compound 4.0 µM): 102%
inhibition ([2]; compound 0.2 µM): -3%
inhibition ([2]; compound 4.0 µM): 16%
inhibition ([4]; compound 0.2 µM): 87.6%
inhibition ([4]; compound 4.0 µM): 98.8%
inhibition ([6]; compound 0.2 µM): 1.2%
inhibition ([6]; compound 4.0 µM): 17.6%
inhibition ([8]; compound 0.2 µM): 25%
inhibition ([8]; compound 4.0 µM): 87.4%
inhibition ([9]; compound 0.2 µM): 24.4%
inhibition ([9]; compound 4.0 µM): 81.9%
inhibition ([10]; compound 0.2 µM): 2.1%
inhibition ([10]; compound 4.0 µM): 40.8%
inhibition ([11]; compound 0.2 µM): 6.7%
inhibition ([11]; compound 4.0 µM): 50.8%
inhibition ([12]; compound 0.2 µM): 52.9%
inhibition ([12]; compound 4.0 µM): 96.2%
inhibition ([13]; compound 0.2 µM): 75.7%
inhibition ([13]; compound 4.0 µM): 101%
inhibition ([14]; compound 0.2 µM): 69.5%
inhibition ([15]; compound 4.0 µM): 101%
inhibition ([16]; compound 0.2 µM): -6.9%
inhibition ([16]; compound 4.0 µM): -20.4%
inhibition ([18]; compound 0.2 µM): 80%
inhibition ([18]; compound 4.0 µM): 99.2%
inhibition ([19]; compound 0.2 µM): 56.6%
inhibition ([19]; compound 4.0 µM): 99.7%
inhibition ([20]; compound 0.2 µM): 4%
inhibition ([20]; compound 4.0 µM): 63.2%
inhibition ([21]; compound 0.2 µM): -0.2%
inhibition ([21]; compound 4.0 µM): 19.2%
inhibition ([22]; compound 0.2 µM): -3.4%
inhibition ([22]; compound 4.0 µM): 5.8%
inhibition ([23]; compound 0.2 µM): 82.6%
inhibition ([23]; compound 4.0 µM): 100%
inhibition ([24]; compound 0.2 µM): -4.4%
inhibition ([24]; compound 4.0 µM): 28.9%
inhibition ([25]; compound 0.2 µM): 0% and -1.3%
inhibition ([25]; compound 4.0 µM): 20% and 27.2%
inhibition ([26]; compound 0.2 µM): 18.4%
inhibition ([26]; compound 4.0 µM): 81.4%
inhibition ([27]; compound 0.2 µM): 15.7%
inhibition ([27]; compound 4.0 µM): 50%
inhibition ([28]; compound 0.2 µM): 78.3%
inhibition ([29]; compound 0.2 µM): -0.6%
inhibition ([29]; compound 4.0 µM): 24%
inhibition ([30]; compound 0.2 µM): 1.1%
inhibition ([30]; compound 4.0 µM): 5.1%
inhibition ([31]; compound 0.2 µM): 83.7%
inhibition ([31]; compound 4.0 µM): 101%
inhibition ([32]; compound 0.2 µM): 13.6%
inhibition ([32]; compound 4.0 µM): 76.8%
inhibition ([33]; compound 0.2 µM): 6.1%
inhibition ([33]; compound 4.0 µM): 43%
inhibition ([34]; compound 0.2 µM): 82.2%
inhibition ([34]; compound 4.0 µM): 100%
Compound: CCN(CC)CCNC(=O)c1c(C)[nH]c(/C=C2\C(=O)Nc3ccc(F)cc32)c1C

inhibition ([1]; compound 0.001 µM): 2.5%
inhibition ([1]; compound 0.02 µM): 1.4%
inhibition ([2]; compound 0.001 µM): -3.7%
inhibition ([2]; compound 0.02 µM): -3.5%
inhibition ([4]; compound 0.001 µM): -7.5%
inhibition ([4]; compound 0.02 µM): -3.4%
inhibition ([5]; compound 0.001 µM): 6.6%
inhibition ([5]; compound 0.02 µM): -7.5%
inhibition ([6]; compound 0.001 µM): -4.6%
inhibition ([6]; compound 0.02 µM): -6.7%
inhibition ([7]; compound 0.001 µM): -8.2%
inhibition ([7]; compound 0.02 µM): -7.8%
inhibition ([8]; compound 0.001 µM): 8.7%
inhibition ([8]; compound 0.02 µM): -6.4%
inhibition ([9]; compound 0.001 µM): -18.5%
inhibition ([9]; compound 0.02 µM): -6.4%
inhibition ([10]; compound 0.001 µM): -6.8%
inhibition ([10]; compound 0.02 µM): -4.3%
inhibition ([11]; compound 0.001 µM): -5.3%
inhibition ([11]; compound 0.02 µM): -3.9%
inhibition ([13]; compound 0.001 µM): -5.2%
inhibition ([13]; compound 0.02 µM): -8.3%
inhibition ([14]; compound 0.001 µM): -2.6%
inhibition ([14]; compound 0.02 µM): 4.8%
inhibition ([15]; compound 0.001 µM): -2.3%
inhibition ([15]; compound 0.02 µM): 1.2%
inhibition ([16]; compound 0.001 µM): -8%
inhibition ([16]; compound 0.02 µM): -6.9%
inhibition ([17]; compound 0.001 µM): 3.5%
inhibition ([17]; compound 0.02 µM): 11.8%
inhibition ([18]; compound 0.001 µM): 1.9%
inhibition ([18]; compound 0.02 µM): 0.9%
inhibition ([19]; compound 0.001 µM): 0.7%
inhibition ([19]; compound 0.02 µM): 0.1%
inhibition ([20]; compound 0.001 µM): -4.6%
inhibition ([20]; compound 0.02 µM): -8%
inhibition ([35]; compound 0.001 µM): 2.6%
inhibition ([35]; compound 0.02 µM): 12.9%
inhibition ([21]; compound 0.001 µM): -5.1%
inhibition ([21]; compound 0.02 µM): -3.4%
inhibition ([22]; compound 0.001 µM): -5%
inhibition ([22]; compound 0.02 µM): -2.2%
inhibition ([23]; compound 0.001 µM): 4.5%
inhibition ([23]; compound 0.02 µM): 8.8%
inhibition ([24]; compound 0.001 µM): -7.2%
inhibition ([24]; compound 0.02 µM): -7.8%
inhibition ([25]; compound 0.001 µM): 4% and 4.9%
inhibition ([26]; compound 0.001 µM): -0.6%
inhibition ([26]; compound 0.02 µM): 10.8%
inhibition ([27]; compound 0.001 µM): 9.2%
inhibition ([27]; compound 0.02 µM): 1.8%
inhibition ([28]; compound 0.001 µM): -5.4%
inhibition ([28]; compound 0.02 µM): 10.3%
inhibition ([29]; compound 0.001 µM): -4.5%
inhibition ([29]; compound 0.02 µM): -4.9%
inhibition ([30]; compound 0.001 µM): -3.3%
inhibition ([30]; compound 0.02 µM): -0.9%
inhibition ([31]; compound 0.001 µM): 1.4%
inhibition ([31]; compound 0.02 µM): 1.1%
inhibition ([32]; compound 0.001 µM): -7.8%
inhibition ([32]; compound 0.02 µM): -8.8%
inhibition ([33]; compound 0.001 µM): -4%
inhibition ([33]; compound 0.02 µM): -3.9%
inhibition ([34]; compound 0.001 µM): -1.2%
inhibition ([34]; compound 0.02 µM): -2%
Compound: CNC(=O)c1ccccc1Sc1ccc2c(/C=C/c3ccccn3)n[nH]c2c1

— the kinase profiling compilation of Christmann-Franck et al. (2016)
